In patent US4358461A, “Antiallergic agent” (Takeda Chemical Industries, Ltd., priority 1980, dated 1982):

System: SRS-A
Test: Inhibitory action on the generation and release of SRS-A (sensitized guinea pig lung fragment; method of Orange and Moore, SRS-A assayed by method of Brocklehurst)
Type: cell-based, guinea pig (Hartley strain)
Details: egg albumin antigen
Excerpt: The action of the antiallergic agent of this invention to inhibit the production of SRS-A was investigated by the method of Orange and Moore [J. Immunol.

## baicalein phosphate disodium [BPS]
Concentration 10 (so in the source)
  Inhibitory action (percent inhibition of generation and release of SRS-A due to antigen-antibody interaction): 18.7 ± 6.6%
Concentration 100 (so in the source)
  Inhibitory action (percent inhibition of generation and release of SRS-A due to antigen-antibody interaction): 50.8 ± 10.7%
